Results on nine molecules are retold here after patent US20200072711A1, “FLUORESCENT ENDOPLASMIC RETICULUM TRACKERS FOR LIVE CELL IMAGING OF PATHOGENIC YEAST” (Ramot at Tel Aviv University Ltd., priority 2018, published 2020).

SMILES strings stand for the structures. Converted amounts (≈) assume the structure as drawn. “Also recorded” adds a separate entry of the source.

Data set [1] deals with tested panel of Candida strains. As to the kind of experiment: Live cell imaging, ER labeling. Type of data set: cell-based. To be noted: panel of Candida strains (C. albicans and C. glabrata). How it is done:
(§1) Growth conditions for live cell imaging. Cells were grown to log phase in liquid YPD overnight at 30° C. in a 10 ml tube. Cells were diluted 1:10 and then incubated for 2 h at 30° C. to log phase.
(§2) Cell staining. The fluorescent probes were added to a final concentration of 10 μM for probes 1-6 to cells from a log phase culture grown in YPD broth media at 30° C. Cells were then incubated in the dark for a total of 60 min. Before imaging, cells were washed once with PBS buffer. For ER-tracker dyes, DiOC6 (1 μg/mL) and BODIPY™ TR Glibenclamide (1 μM), staining cells were incubated in a prepared Hanks' Balanced Salt Solution at 37° C. for 5 min and 30 min, respectively. For ER-tracker Blue-White DPX (1 μM), staining cells were incubated in YPD for 30 min at 30° C. For mitochondrial staining the previously reported Cy5-based mitochondrial dye was used (1 μg/mL). For staining, cells were incubated in YPD in the presence of dye for 5 min at 30° C. Cells were then washed with PBS buffer once.
Live cell imaging. Candida cells were resuspended in PBS buffer and 2 μL were placed on a glass slides and covered with glass coverslips. C. glabrata (ATCC 2001) cells treated with probes 1-6, all tested Candida cells treated with ER-tracker Blue-White DPX and inter-organelle interaction study were imaged on a MORE imaging system (TILL Photonics GmbH) with an Olympus UPlanApo 100X 1.3 NA oil immersion objective. The bandpass filter sets used to image probes 1-3 were excitation 427/10 nm and emission 510/20 nm. The bandpass filter sets used to image probes 4-6 were excitation 485/20 nm and emission 525/30 nm. The bandpass filter sets used to image ER-tracker Blue-White DPX were excitation 390/40 nm and emission 525/30 nm. The bandpass filter sets used to image Cy5-based mitochondrial dye were excitation 560/25 nm and emission 684/24 nm. C. albicans cells (ATCC 24433 and SN152) and C. glabrata (ATCC 66032) treated with probes 1-6 were imaged on a Nikon Ti microscope equipped with a Plan Apo VC 100X oil objective and a Zyla 5.5 sCMOS camera (Andor) run by NIS elements Ar software. The bandpass filter sets used to image probes 1-3, and DiOC6-stained cells were excitation 440 nm and emission 480/40 nm. The bandpass filter sets used to image cells treated with probes 4-6, excitation 470 nm and emission 525/50 nm were used. For Eno1-mCherry, excitation 585 nm and emission 630/75 nm were used. To optimize the probes, the effects of the concentration (1, 5 and 10 μM), incubation time (5, 30, 60 and 120 min) and media (YPD and HBSS) were investigated. Images were processed using ImageJ program. The smoothed imaged were generated using the convolve filter (Normalize Kernel).

The test system of another data set is C. albicans cells. Kind of data set: Live cell imaging, ER labeling. Type of data set: cell-based, Candida albicans. The protocol:
as §1, §2
(§3) Live cell imaging. Candida cells were resuspended in PBS buffer and 2 μL were placed on a glass slides and covered with glass coverslips. […]

The conditions of data set [2]: commercial ER-trackers; cited from earlier work.
A further data set relates to C. glabrata strains. As to the kind of experiment: Live cell imaging, ER labeling. The following applies: C. glabrata yeast cells. The format is cell-based, Candida glabrata. The protocol: as §1, §2, §3
Data set [3] deals with C. albicans SN152. As to the kind of experiment: Live cell imaging, ER labeling. The format is cell-based, Candida albicans. The protocol:
as §1, §2, §3

Another data set concerns C. glabrata ATCC 2001. As to the kind of experiment: Minimal inhibitory concentration broth double-dilution assay. Type of data set: cell-based, Candida glabrata. To be noted: Nakaseomyces glabratus, ATCC2001, 24 h, 37° C., Casitone. How it is done:
(§4) Minimal inhibitory concentration broth double-dilution assay. All strains were tested using the double-dilution method in 96-well plates (Corning). Yeast strains were grown in Casitone growth medium. Starter cultures were incubated for 24 h (37° C., 5% CO2, aerobic conditions) and then diluted 1:100 into fresh medium. Compounds dissolved in ethanol or in DMSO were added to the casitone broth to form the mother liquor (32 μL stock solution in 1218 μL of casitone) at the starting concentration of 64 μg/mL. Next, 100 μL of serial double dilutions of compounds in Casitone ([…], and 0.007 μg/mL) were prepared in flat-bottomed 96-well microplates (Corning). Control wells with no compounds, and wells without yeast cells containing each tested concentration of the compounds (blanks), were also prepared. An equal volume (100 μL) of yeast suspensions in Casitone broth that was prepared as follows: 900 mL doubly distilled H2O, 9 g Casitone (bacto-casitone), 5 g yeast extract, 11.5 g sodium citrate dihydrate, 20 g glucose. The yeast suspension was added to each well for a final volume of 200 μL. The ethanol or the DMSO concentrations ranged from 0.0012% to 1.3%. The final inoculum was between 5×10^4 colony-forming unit (CFU)/mL and 5×10^5 CFU/mL; identical results were obtained when using 5×10^3 CFU/mL as a final inoculum. After incubation for 24 h at 37° C. in 5% CO2, MTT (3-[4,5-dimethylthiazole-2-yl]-2,5-diphenyltetrazolium bromide; 50 μL of a 1 mg/mL solution in H2O) was added to each well followed by additional incubation at 37° C. for 2 h. Each concentration was tested in triplicate, and results were confirmed by two independent sets of experiments.

The next data set deals with C. glabrata ATCC 66032. The description is as above. The following applies: Nakaseomyces glabratus, ATCC66032, 24 h, 37° C., Casitone. The format is cell-based, Candida glabrata. The protocol:
as §4

The next data set deals with C. albicans ATCC 24433. The description is as above. The format is cell-based. To be noted: Candida albicans, ATCC24433, 24 h, 37° C., Casitone. The protocol:
as §4

The subject of data set [4] is C. albicans SN152. Described as above. The format is cell-based. The following applies: Candida albicans, 24 h, 37° C., Casitone. The protocol:
as §4

For data set [5], the system named is all tested Candida strains. Kind of data set: MIC assay, over the panel. Type of data set: cell-based. The protocol: as §4, with “The final inoculum was between 5×10^4 colony-forming unit (CFU)/mL and 5×10^5 CFU/mL; identical results were obtained when using 5×10^3 CFU/mL as a final inoculum. After incubation for 24 h at 37° C. in 5% CO2, MTT (3-[4,5-dimethylthiazole-2-yl]-2,5-diphenyltetrazolium bromide; 50 μL of a 1 mg/mL solution in H2O) was added to each well followed by additional incubation at 37° C. for 2 h. Each concentration was tested in triplicate, and results were confirmed by two independent sets of experiments.” left out
The ER-labeling properties were evaluated by incubating the compounds with representative strains of C. albicans and C. glabrata. […]

Data set [6] can be described thus: Absorption and emission spectra of fluorescent probes. Type of data set: physicochemical. The following applies: 10 μM in PBS, pH=7.4; for emission maxima: excitation at 420 nm. The protocol: FIGS. 4A-4F show absorption and emission spectra of probes 1-6 (10 μM in PBS, pH=7.4), respectively. Emission spectrum was measured after excitation at 420 nm.
General chemistry methods and instrumentation. ^1H-NMR spectra (including 1D-TOCSY) were recorded on BrukerAvance™ 400 or 500 MHz spectrometers, and chemical shifts (reported in ppm) were calibrated to CDCl3 (d=7.26) when CDCl3 was the solvent, or to CD3OD (d=3.31) when CD3OD was the solvent. ^13C-NMR spectra were recorded on BrukerAvance™ 400 or 500 MHz spectrometers at 100 or 125 MHz. ^19F-NMR spectra were recorded on BrukerAvance™ 400 or 500 MHz spectrometers at 375 or 470 MHz. Multiplicities are reported using the following abbreviations: b=broad, s=singlet, d=doublet, t=triplet, q=quartet. Coupling constants (J) are given in Hertz. HRESI mass spectra were measured on a Waters Synapt instrument. Chemical reactions were monitored by TLC (Merck, Silica gel 60 F254). Visualization was achieved using a cerium molybdate stain (5 g (NH4)2Ce(NO3)6, 120 g (NH4)6Mo7O24·4H2O, 80 mL H2SO4, 720 mL H2O) or with UV lamp. Unless otherwise stated, all chemicals were obtained from commercial sources. Compounds were purified using Geduran® Si 60 chromatography (Merck). The SpectraMax i3x Platform spectrophotometer from Molecular Devices was used for the measurement of the excitation and absorbance spectra of the fluorescent probes.
We first measured the absorption and emission spectra of fluorescent probes 1-6. […] This 70-nm redshift effect is attributed to the effect of the halogen atoms in the phenyl ring segment of these molecules: a difluorophenyl ring in probe 2 and a dichlorophenyl in probe 3.

In general, MIC refers to the lowest concentration found to suppress growth. Low readings indicate a more susceptible organism, high ones a less susceptible organism.

As for `COC(=O)CCC1=[N+]2C(=Cc3c(C)cc(C)n3[B-]2(F)F)C=C1` [BODIPY-methyl ester], the staining pattern entry in data set [1] is listed as “the entire cytoplasm was labeled in a non-specific pattern”.
In the case of `CN(C)c1ccc(-c2cnc(-c3ccc(S(=O)(=O)NCCNC(=O)c4c(F)c(F)c(F)c(F)c4F)cc3)o2)cc1` [Blue-White DPX], the staining pattern result with C. albicans cells is reported as “non-specific staining of the cytoplasm”; in [1], “stained Candida glabrata cells only; also recorded: non-specific labeling of additional intracellular compartments, such as lipid droplets, was observed”; in the data set with C. glabrata strains, “label the ER; also recorded: a circular pattern around the nuclear envelope with peripheral cortical extensions reminiscent of the ER structure was clearly visible”. For the same molecule, in [2], the “emission (em)” value is 430-640 nm. Also, the “excitation (ex)” value in data set [2] is 374 nm.
On to `CCCCCCN1C(=CC=Cc2oc3ccccc3[n+]2CCCCCC)Oc2ccccc21.[I-]` [DiOC6, 3,3′-dihexyloxacarbocyanine iodide], for which the staining pattern result in the data set on C. albicans SN152 [3] is recorded as “non-specific staining of other cellular compartments such as lipid droplets was also observed”; in [1], “more significant in C. albicans than in C. glabrata yeast cells; also recorded: non-specific labeling of additional intracellular compartments, such as lipid droplets, was observed”. Besides, the “emission (em)” value in [2] is recorded as 500 nm. Further, the “excitation (ex)” value in data set [2] was 480 nm.
For `OC(Cn1cncn1)(Cn1cncn1)c1ccc(F)cc1F` [FLC, fluconazole, reference compound], the MIC with C. glabrata ATCC 2001 was 64 µg/mL (≈ 209 µM); against C. glabrata ATCC 66032, 64 µg/mL (≈ 209 µM); against C. albicans ATCC 24433 it was 0.5 µg/mL (≈ 1.63 µM); against C. albicans SN152 [4] it was 0.5 µg/mL (≈ 1.63 µM).
Consider `CCC(C)n1ncn(-c2ccc(N3CCN(c4ccc(OCC5COC(Cn6cncn6)(c6ccc(Cl)cc6Cl)O5)cc4)CC3)cc2)c1=O` (stereo not drawn) [ITR, itraconazole, reference compound], for which the MIC in the data set with C. glabrata ATCC 2001 stood at 4 µg/mL (≈ 5.67 µM); with C. glabrata ATCC 66032 it was 0.5 µg/mL (≈ 0.709 µM); with C. albicans ATCC 24433 it was 0.015 µg/mL (≈ 0.0213 µM); against C. albicans SN152 [4], 0.007 µg/mL (≈ 0.00992 µM).
On the same counts, the results for `CCN(CC)c1ccc2cc(C(=O)NCC(O)(Cn3cncn3)c3ccc(F)cc3F)c(=O)oc2c1` (stereo not drawn) [Probe 1] are 16 µg/mL (≈ 32.2 µM), 8 µg/mL (≈ 16.1 µM), 0.03 µg/mL (≈ 0.0603 µM) and 0.007 µg/mL (≈ 0.0141 µM).
Regarding `CCN(CC)c1ccc2cc(C(=O)NCC(O)(Cn3ccnn3)c3ccc(F)cc3F)c(=O)oc2c1` (stereo not drawn) [Probe 2], the MIC in the data set on C. glabrata ATCC 2001 is above 64 µg/mL; in the data set on C. glabrata ATCC 66032, above 64 µg/mL; in the data set on C. albicans ATCC 24433, above 64 µg/mL; in the data set on C. albicans SN152 [4] it was above 64 µg/mL; in [5] it was at least 64 µg/mL. In data set [1], the staining pattern entry was “the distinct nuclear envelope and cortical structure of the ER were clearly observed”. Further, the absorption spectrum maxima in data set [6] stood at 430 nm. In addition, the emission maxima in data set [6] worked out at 480 nm.
On to `CCN(CC)c1ccc2cc(C(=O)NCC(O)(Cn3ccnn3)c3ccc(Cl)cc3Cl)c(=O)oc2c1` (stereo not drawn) [Probe 3], for which the MIC is above 64 µg/mL against C. glabrata ATCC 2001; above 64 µg/mL against C. glabrata ATCC 66032; above 64 µg/mL against C. albicans ATCC 24433; above 64 µg/mL with C. albicans SN152 [4]; at least 64 µg/mL in [5]. Further, the staining pattern result in data set [1] is “the distinct nuclear envelope and cortical structure of the ER were clearly observed”. Further, the absorption spectrum maxima in data set [6] amounted to 430 nm. For the same molecule, in [6], the emission maxima was found to be 550 nm.
On to `CCOC(=O)c1cc2ccc(N(CC)CC)cc2oc1=O` [ethyl ester of 7-(diethyl)-aminocoumarin, 7-(diethyl)-aminocoumarin ethyl ester], for which, in [1], the staining pattern entry is “did not stain the yeast cell interior of any of the tested Candida strains”.
